Source: ChEMBL document CHEMBL4507329, “Data for DCP probe BTZO-1” (2021)

What was measured:
[1] = molecular target: Tyrosine-protein kinase SYK (Homo sapiens) (UniProt P43405); details: Compound concentration 1000.0 nM
[2] = molecular target: Serine/threonine-protein kinase SIK3 (Homo sapiens) (UniProt Q9Y2K2); details: Compound concentration 1000.0 nM
[3] = molecular target: Serine/threonine-protein kinase D1 (Homo sapiens) (UniProt Q15139); details: Compound concentration 1000.0 nM
[4] = molecular target: Phosphatidylinositol 3-kinase C2 domain-containing subunit gamma (Homo sapiens) (UniProt O75747); details: Compound concentration 1000.0 nM
[5] = molecular target: Vascular endothelial growth factor receptor 3 (Homo sapiens) (UniProt P35916); details: Compound concentration 1000.0 nM
[6] = molecular target: Vascular endothelial growth factor receptor 1 (Homo sapiens) (UniProt P17948); details: Compound concentration 1000.0 nM
[7] = molecular target: Serine/threonine-protein kinase 26 (Homo sapiens) (UniProt Q9P289); details: Compound concentration 1000.0 nM
[8] = molecular target: Serine/threonine-protein kinase 35 (Homo sapiens) (UniProt Q8TDR2); details: Compound concentration 1000.0 nM
Sequence of Serine/threonine-protein kinase 35 (Homo sapiens) (Q8TDR2 whole entry): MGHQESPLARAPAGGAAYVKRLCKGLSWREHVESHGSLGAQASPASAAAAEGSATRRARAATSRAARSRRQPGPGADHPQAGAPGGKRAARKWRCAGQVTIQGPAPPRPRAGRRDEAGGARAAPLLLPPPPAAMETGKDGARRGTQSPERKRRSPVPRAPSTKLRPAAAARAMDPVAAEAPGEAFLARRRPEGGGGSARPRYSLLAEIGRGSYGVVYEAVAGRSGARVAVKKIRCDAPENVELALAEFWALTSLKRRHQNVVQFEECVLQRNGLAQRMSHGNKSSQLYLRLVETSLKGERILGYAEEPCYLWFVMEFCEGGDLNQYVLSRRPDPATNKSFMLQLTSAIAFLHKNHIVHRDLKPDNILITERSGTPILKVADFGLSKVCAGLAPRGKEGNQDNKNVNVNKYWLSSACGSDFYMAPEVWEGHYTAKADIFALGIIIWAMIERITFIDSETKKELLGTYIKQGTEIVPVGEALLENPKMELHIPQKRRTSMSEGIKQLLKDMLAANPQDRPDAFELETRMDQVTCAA

[9] = molecular target: RAC-gamma serine/threonine-protein kinase (Homo sapiens) (UniProt Q9Y243); details: Compound concentration 1000.0 nM
[10] = molecular target: Serine/threonine-protein kinase STK11 (Homo sapiens) (UniProt Q15831); details: Compound concentration 1000.0 nM
[11] = molecular target: Tyrosine-protein kinase Blk (Homo sapiens) (UniProt P51451); details: Compound concentration 1000.0 nM
[12] = molecular target: Dual specificity mitogen-activated protein kinase kinase 3 (Homo sapiens) (UniProt P46734); details: Compound concentration 1000.0 nM
Sequence of Dual specificity mitogen-activated protein kinase kinase 3 (Homo sapiens) (P46734 whole entry): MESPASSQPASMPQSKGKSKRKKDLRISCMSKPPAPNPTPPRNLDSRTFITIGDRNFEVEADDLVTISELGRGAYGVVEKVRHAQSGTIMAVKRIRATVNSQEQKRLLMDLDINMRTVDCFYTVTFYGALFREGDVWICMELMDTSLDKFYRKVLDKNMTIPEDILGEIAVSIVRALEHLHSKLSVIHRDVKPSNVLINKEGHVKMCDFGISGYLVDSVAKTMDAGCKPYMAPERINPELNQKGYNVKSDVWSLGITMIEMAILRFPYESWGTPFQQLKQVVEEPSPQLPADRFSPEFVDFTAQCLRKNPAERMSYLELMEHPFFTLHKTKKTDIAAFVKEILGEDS

[13] = molecular target: Protein kinase C theta type (Homo sapiens) (UniProt Q04759); details: Compound concentration 1000.0 nM
[14] = molecular target: Maternal embryonic leucine zipper kinase (Homo sapiens) (UniProt Q14680); details: Compound concentration 1000.0 nM
[15] = molecular target: Kappa-type opioid receptor (Homo sapiens) (UniProt P41145); details: Compound concentration 10.0 uM
[16] = system: Epidermal growth factor receptor (Homo sapiens), P00533 [UNDEFINED MUTATION]; details: Compound concentration 1000.0 nM
[17] = molecular target: Serine/threonine-protein kinase VRK2 (Homo sapiens) (UniProt Q86Y07); details: Compound concentration 1000.0 nM
[18] = molecular target: Tyrosine-protein kinase BTK (Homo sapiens) (UniProt Q06187); details: Compound concentration 1000.0 nM
[19] = molecular target: Death-associated protein kinase 2 (Homo sapiens) (UniProt Q9UIK4); details: Compound concentration 1000.0 nM
Sequence of Death-associated protein kinase 2 (Homo sapiens) (Q9UIK4 whole entry, looked up): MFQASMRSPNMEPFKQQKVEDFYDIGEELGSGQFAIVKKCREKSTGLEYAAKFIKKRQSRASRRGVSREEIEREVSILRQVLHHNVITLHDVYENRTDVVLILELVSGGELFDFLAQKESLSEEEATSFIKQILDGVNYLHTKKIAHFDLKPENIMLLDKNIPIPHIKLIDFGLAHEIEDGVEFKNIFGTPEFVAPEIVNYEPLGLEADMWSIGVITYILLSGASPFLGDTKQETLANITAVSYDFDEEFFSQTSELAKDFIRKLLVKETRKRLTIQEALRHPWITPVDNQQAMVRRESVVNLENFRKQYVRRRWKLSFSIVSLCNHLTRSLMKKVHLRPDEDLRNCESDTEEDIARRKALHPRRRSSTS

[20] = molecular target: Tyrosine-protein kinase JAK2 (Homo sapiens) (UniProt O60674); details: Compound concentration 1000.0 nM
[21] = molecular target: Receptor tyrosine-protein kinase erbB-4 (Homo sapiens) (UniProt Q15303); details: Compound concentration 1000.0 nM
[22] = molecular target: Discoidin domain-containing receptor 2 (Homo sapiens) (UniProt Q16832); details: Compound concentration 1000.0 nM
[23] = system: Mast/stem cell growth factor receptor Kit (Homo sapiens), P10721 [V559D,T670I]; details: Compound concentration 1000.0 nM
[24] = molecular target: TGF-beta receptor type-2 (Homo sapiens) (UniProt P37173); details: Compound concentration 1000.0 nM
[25] = molecular target: cAMP-dependent protein kinase catalytic subunit beta (Homo sapiens) (UniProt P22694); details: Compound concentration 1000.0 nM
[26] = molecular target: Transient receptor potential cation channel subfamily M member 6 (Homo sapiens) (UniProt Q9BX84); details: Compound concentration 1000.0 nM
[27] = system: Tyrosine-protein kinase ABL1 (Homo sapiens), P00519 [F317I]; details: Compound concentration 1000.0 nM
[28] = molecular target: Cytoplasmic tyrosine-protein kinase BMX (Homo sapiens) (UniProt P51813); details: Compound concentration 1000.0 nM
[29] = molecular target: Testis-specific serine/threonine-protein kinase 1 (Homo sapiens) (UniProt Q9BXA7); details: Compound concentration 1000.0 nM
[30] = molecular target: Serine/threonine-protein kinase 24 (Homo sapiens) (UniProt Q9Y6E0); details: Compound concentration 1000.0 nM
Sequence of Serine/threonine-protein kinase 24 (Homo sapiens) (Q9Y6E0 whole entry, looked up): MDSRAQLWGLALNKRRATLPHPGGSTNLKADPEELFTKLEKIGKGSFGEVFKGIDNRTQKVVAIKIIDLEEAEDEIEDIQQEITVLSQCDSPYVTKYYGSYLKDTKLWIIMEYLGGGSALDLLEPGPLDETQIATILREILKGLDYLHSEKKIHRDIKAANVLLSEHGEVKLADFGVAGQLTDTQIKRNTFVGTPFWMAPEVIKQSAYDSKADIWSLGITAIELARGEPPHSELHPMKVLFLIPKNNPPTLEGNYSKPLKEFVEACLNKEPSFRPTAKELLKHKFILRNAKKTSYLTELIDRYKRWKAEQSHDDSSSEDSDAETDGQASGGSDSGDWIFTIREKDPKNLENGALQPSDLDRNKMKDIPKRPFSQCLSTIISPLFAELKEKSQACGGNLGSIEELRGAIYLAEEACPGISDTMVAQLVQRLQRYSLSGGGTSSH

[31] = system: Mast/stem cell growth factor receptor Kit (Homo sapiens), P10721 [V559D]; details: Compound concentration 1000.0 nM
[32] = molecular target: Serine/threonine-protein kinase ULK2 (Homo sapiens) (UniProt Q8IYT8); details: Compound concentration 1000.0 nM
[33] = molecular target: SRSF protein kinase 3 (Homo sapiens) (UniProt Q9UPE1); details: Compound concentration 1000.0 nM
[34] = system: Tyrosine-protein kinase ABL1 (Homo sapiens), P00519 [F317L]; details: Compound concentration 1000.0 nM
[35] = molecular target: Serine/threonine-protein kinase D3 (Homo sapiens) (UniProt O94806); details: Compound concentration 1000.0 nM
[36] = molecular target: Phosphatidylinositol 5-phosphate 4-kinase type-2 beta (Homo sapiens) (UniProt P78356); details: Compound concentration 1000.0 nM
[37] = molecular target: Atypical kinase COQ8A, mitochondrial (Homo sapiens) (UniProt Q8NI60); details: Compound concentration 1000.0 nM
[38] = molecular target: Phosphorylase b kinase regulatory subunit alpha, liver isoform (Homo sapiens) (UniProt P46019); details: Compound concentration 1000.0 nM
[39] = molecular target: Serine/threonine-protein kinase SBK1 (Homo sapiens) (UniProt Q52WX2); details: Compound concentration 1000.0 nM
[40] = molecular target: Microtubule-associated serine/threonine-protein kinase 1 (Homo sapiens) (UniProt Q9Y2H9); details: Compound concentration 1000.0 nM
[41] = molecular target: Rho-associated protein kinase 2 (Homo sapiens) (UniProt O75116); details: Compound concentration 1000.0 nM
Sequence of Rho-associated protein kinase 2 (Homo sapiens) (O75116 whole entry, looked up, canonical isoform): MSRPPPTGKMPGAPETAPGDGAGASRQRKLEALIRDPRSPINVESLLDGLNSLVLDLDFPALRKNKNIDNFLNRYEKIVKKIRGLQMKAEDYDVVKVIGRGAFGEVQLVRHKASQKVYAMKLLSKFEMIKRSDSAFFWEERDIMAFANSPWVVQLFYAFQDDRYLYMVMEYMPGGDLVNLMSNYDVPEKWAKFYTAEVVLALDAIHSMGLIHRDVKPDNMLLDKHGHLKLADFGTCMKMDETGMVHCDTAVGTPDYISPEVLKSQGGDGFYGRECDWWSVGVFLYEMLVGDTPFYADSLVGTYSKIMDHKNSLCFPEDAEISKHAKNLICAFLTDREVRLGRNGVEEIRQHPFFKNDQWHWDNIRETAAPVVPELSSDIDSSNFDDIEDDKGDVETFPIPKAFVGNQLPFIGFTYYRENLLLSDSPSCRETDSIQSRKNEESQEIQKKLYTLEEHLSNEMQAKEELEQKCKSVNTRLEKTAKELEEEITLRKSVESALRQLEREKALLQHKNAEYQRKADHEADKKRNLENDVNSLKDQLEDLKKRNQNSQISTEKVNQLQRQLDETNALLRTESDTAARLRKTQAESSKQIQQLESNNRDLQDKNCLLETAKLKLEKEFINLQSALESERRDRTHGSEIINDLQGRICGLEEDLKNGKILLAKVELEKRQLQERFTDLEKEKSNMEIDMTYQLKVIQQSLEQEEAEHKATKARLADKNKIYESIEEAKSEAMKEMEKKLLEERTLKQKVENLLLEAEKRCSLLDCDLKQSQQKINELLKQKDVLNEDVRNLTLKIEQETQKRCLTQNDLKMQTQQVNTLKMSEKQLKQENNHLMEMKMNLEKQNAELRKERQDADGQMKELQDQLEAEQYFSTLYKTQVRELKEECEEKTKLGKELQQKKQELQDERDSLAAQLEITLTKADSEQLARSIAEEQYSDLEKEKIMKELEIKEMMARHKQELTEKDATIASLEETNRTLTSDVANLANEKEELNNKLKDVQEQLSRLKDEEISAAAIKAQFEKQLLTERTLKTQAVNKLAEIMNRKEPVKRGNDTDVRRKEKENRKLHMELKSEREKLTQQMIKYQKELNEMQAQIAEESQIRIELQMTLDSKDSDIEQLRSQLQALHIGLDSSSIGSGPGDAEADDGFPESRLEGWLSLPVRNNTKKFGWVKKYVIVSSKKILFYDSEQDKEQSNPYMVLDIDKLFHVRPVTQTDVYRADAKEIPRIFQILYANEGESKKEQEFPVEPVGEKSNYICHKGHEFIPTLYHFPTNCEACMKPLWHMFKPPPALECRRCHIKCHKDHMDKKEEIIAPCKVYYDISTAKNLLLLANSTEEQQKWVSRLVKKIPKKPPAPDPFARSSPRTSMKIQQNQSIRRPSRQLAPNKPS

[42] = system: Phosphatidylinositol 4,5-bisphosphate 3-kinase catalytic subunit alpha isoform (Homo sapiens), P42336 [C420R]; details: Compound concentration 1000.0 nM
Sequence of Phosphatidylinositol 4,5-bisphosphate 3-kinase catalytic subunit alpha isoform (Homo sapiens), P42336 [C420R] (P42336 whole entry C420R, canonical isoform): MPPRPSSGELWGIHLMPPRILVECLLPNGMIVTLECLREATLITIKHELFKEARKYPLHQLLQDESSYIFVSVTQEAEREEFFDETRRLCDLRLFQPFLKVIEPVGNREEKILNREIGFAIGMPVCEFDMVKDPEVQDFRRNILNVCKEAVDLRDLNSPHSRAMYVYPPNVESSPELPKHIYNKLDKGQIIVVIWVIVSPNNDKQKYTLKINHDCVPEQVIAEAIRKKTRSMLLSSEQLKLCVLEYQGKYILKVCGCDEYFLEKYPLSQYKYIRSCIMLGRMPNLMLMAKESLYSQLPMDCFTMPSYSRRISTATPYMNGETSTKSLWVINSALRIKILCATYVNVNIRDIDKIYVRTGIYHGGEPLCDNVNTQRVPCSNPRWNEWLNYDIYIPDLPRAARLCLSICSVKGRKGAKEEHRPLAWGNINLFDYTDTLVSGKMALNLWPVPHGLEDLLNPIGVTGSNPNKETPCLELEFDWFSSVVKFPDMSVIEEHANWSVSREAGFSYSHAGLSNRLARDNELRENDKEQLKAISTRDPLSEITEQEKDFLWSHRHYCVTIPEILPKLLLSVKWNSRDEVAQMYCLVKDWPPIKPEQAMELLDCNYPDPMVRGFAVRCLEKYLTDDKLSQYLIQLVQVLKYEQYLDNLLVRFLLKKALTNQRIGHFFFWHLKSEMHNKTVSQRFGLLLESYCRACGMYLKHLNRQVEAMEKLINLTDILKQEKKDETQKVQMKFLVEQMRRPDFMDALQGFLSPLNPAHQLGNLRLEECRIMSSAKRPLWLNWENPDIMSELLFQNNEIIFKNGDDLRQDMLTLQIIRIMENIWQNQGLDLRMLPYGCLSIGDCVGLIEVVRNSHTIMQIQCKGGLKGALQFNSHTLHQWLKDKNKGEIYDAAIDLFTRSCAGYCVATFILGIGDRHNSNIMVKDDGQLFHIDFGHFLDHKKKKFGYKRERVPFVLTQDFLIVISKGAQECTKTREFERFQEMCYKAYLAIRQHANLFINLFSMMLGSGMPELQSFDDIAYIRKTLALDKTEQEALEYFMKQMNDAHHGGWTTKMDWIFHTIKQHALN

[43] = molecular target: D(2) dopamine receptor (Homo sapiens) (UniProt P14416); details: Compound concentration 10.0 uM
[44] = molecular target: Serine/threonine-protein kinase pim-1 (Homo sapiens) (UniProt P11309); details: Compound concentration 1000.0 nM
[45] = molecular target: Ephrin type-A receptor 3 (Homo sapiens) (UniProt P29320); details: Compound concentration 1000.0 nM

Sequence of Serine/threonine-protein kinase D1 (Homo sapiens) (Q15139 whole entry, the tested form may be a part): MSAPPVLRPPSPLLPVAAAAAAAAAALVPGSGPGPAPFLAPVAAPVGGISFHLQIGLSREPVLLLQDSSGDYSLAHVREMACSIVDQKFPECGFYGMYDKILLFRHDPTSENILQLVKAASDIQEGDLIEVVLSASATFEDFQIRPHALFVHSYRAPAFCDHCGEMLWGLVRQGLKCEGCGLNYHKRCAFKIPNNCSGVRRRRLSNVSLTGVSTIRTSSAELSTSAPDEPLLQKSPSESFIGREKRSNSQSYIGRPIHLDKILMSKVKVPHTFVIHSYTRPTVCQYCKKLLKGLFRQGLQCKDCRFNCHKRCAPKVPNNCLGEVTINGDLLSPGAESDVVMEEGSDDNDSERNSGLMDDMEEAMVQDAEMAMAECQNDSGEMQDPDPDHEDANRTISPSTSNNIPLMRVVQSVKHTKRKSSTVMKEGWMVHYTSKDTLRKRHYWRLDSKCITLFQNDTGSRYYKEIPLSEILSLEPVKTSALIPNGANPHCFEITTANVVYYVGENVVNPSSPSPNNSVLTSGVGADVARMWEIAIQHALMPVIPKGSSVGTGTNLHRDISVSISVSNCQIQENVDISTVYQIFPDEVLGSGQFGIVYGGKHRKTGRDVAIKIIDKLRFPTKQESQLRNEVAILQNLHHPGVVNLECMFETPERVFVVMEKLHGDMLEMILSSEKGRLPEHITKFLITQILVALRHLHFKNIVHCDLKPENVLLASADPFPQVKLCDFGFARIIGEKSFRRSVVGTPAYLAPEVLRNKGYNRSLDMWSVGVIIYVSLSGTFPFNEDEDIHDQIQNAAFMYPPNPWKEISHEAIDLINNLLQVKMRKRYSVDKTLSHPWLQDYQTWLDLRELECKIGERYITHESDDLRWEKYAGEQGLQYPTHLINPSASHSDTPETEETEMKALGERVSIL

O=c1nc(-c2ccccn2)sc2ccccc12 [BTZO-1]
inactive: residual activity [1] 97% | residual activity [2] 85% | residual activity [3] 100% | residual activity [4] 100% | residual activity [5] 84% | residual activity [6] 100% | residual activity [7] 100% | residual activity [8] 79% | residual activity [9] 100% | residual activity [10] 79% | residual activity [11] 88% | residual activity [12] 75% | residual activity [13] 90% | residual activity [14] 82% | inhibition [15] 1.65% | residual activity [16] 100% | residual activity [17] 74% | residual activity [18] 96% | residual activity [19] 86% | residual activity [20] 100% | residual activity [21] 96% | residual activity [22] 100% | residual activity [23] 83% | residual activity [24] 100% | residual activity [25] 92% | residual activity [26] 77% | residual activity [27] 100% | residual activity [28] 98% | residual activity [29] 100% | residual activity [30] 100% | residual activity [31] 95% | residual activity [32] 100% | residual activity [33] 100% | residual activity [34] 100% | residual activity [35] 81% | residual activity [36] 100% | residual activity [37] 88% | residual activity [38] 77% | residual activity [39] 100% | residual activity [40] 73% | residual activity [41] 94% | residual activity [42] 94% | inhibition [43] 22.9% | residual activity [44] 85% | residual activity [45] 87%

O=C1NC(c2ccccn2)Sc2ccccc21 (stereo not given) [BTZO-4]
inactive: residual activity [1] 75% | residual activity [2] 70% | residual activity [3] 100% | residual activity [4] 100% | residual activity [5] 70% | residual activity [6] 100% | residual activity [7] 80% | residual activity [8] 99% | residual activity [9] 100% | residual activity [10] 87% | residual activity [11] 77% | residual activity [12] 81% | residual activity [13] 76% | residual activity [14] 81% | inhibition [15] 4.68% | residual activity [16] 100% | residual activity [17] 77% | residual activity [18] 74% | residual activity [19] 79% | residual activity [20] 84% | residual activity [21] 77% | residual activity [22] 100% | residual activity [23] 87% | residual activity [24] 85% | residual activity [25] 97% | residual activity [26] 64% | residual activity [27] 90% | residual activity [28] 100% | residual activity [29] 66% | residual activity [30] 94% | residual activity [31] 100% | residual activity [32] 76% | residual activity [33] 100% | residual activity [34] 100% | residual activity [35] 100% | residual activity [36] 100% | residual activity [37] 98% | residual activity [38] 73% | residual activity [39] 100% | residual activity [40] 91% | residual activity [41] 67% | residual activity [42] 100% | inhibition [43] -3.91% | residual activity [44] 82% | residual activity [45] 100%
